Article PMC9127112, “Opening opportunities for Kd determination and screening of MHC peptide complexes” (Communications Biology, 2022)
“And” between values parts separate entries of the source, which are not always exact repeats. Equal entries are not always repeated.

Key:
[1] = biological target: empty disulfide-stabilized HLA-A*02:01(Y84C/A139C) complex of heavy chain and beta-2 microglobulin (human); assay: native MS
[2] = biological target: empty disulfide-stabilized HLA-A*02:01(Y84C/A139C) complex of heavy chain and beta-2 microglobulin (human); assay: nanoscale differential scanning fluorimetry (nDSF, thermal stabilisation)
[3] = biological target: T1, dsA2: HLA-A*02:01(Y84C/A139C) disulfide mutant heavy chain / β2m complex (Homo sapiens, UniProt P04439, D140Y/D185E/D98H/E176V/E277Q/G131W/G231S/I119V/I121R/I166T/I218V/L300P/L318F/N151K/N90K/P208A/P217A/Q86G/Q94H/R138H/R169H/T345S/A163C/Y108C); assay: native mass spectrometry (nMS) of peptide binding to empty dsA2; conditions: cone 150 V, ratio 1:5, raw data, mean of >=3 measurements;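 further: native nano-electrospray MS on Q-Tof II in positive mode, dsA2 at 10 µM with peptide 50–200 µM, incubated ≥10 min on ice, argon collision gas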
T1 construct: made in house; host or cells: Escherichia coli (pET3a)

[4] = biological target: T1, dsA2: HLA-A*02:01(Y84C/A139C) disulfide mutant heavy chain / β2m complex; assay: nanoscale differential scanning fluorimetry (nDSF) thermal stability; format: binding; conditions: for Tm: dsA2 2 µM, at least two independent measurements
[5] = biological target: empty disulfide-stabilized HLA-A*02:01(Y84C/A139C) in complex with beta-2 microglobulin (human); assay: isothermal analysis of nanoscale
[6] = biological target: empty disulfide-stabilized HLA-A*02:01(Y84C/A139C) complex of heavy chain and beta-2 microglobulin (human); assay: native MS; remark: listed apart in the source
[7] = biological target: empty disulfide-stabilized HLA-A*02:01(Y84C/A139C) complex of heavy chain and beta-2 microglobulin (human); assay: nanoscale differential scanning f

Ac-NV9-NH2, NV9 with an acetylated N-terminus and an amidated C-terminus (peptide)
Kd [1]: 7 µM | ∆Tm [2]: 2.7 K

NT8, NV9 without the C-terminal valine (peptide)
Kd [1]: 30 µM

YPNVNIHNF [YF9, reference compound]
AUC dsA2 (empty) ([3]; acceleration voltage 10 V): 56 ± 3% and 56% | AUC dsA2/erucamide ([3]; acceleration voltage 10 V): 39 ± 2% and 39% | AUC dsA2/pep ([3]; acceleration voltage 10 V): 4 ± 2% and 4% | AUC dsA2/pep/pep ([3]; acceleration voltage 10 V): 0% | AUC dsA2 (empty) ([3]; acceleration voltage 25 V): 51% | AUC dsA2/erucamide ([3]; acceleration voltage 25 V): 44% | AUC dsA2/pep ([3]; acceleration voltage 25 V): 5% | AUC dsA2/pep/pep ([3]; acceleration voltage 25 V): 0% | AUC dsA2 (empty) ([3]; acceleration voltage 50 V): 95% | AUC dsA2/erucamide ([3]; acceleration voltage 50 V): 2% | AUC dsA2/pep ([3]; acceleration voltage 50 V): 5% | AUC dsA2/pep/pep ([3]; acceleration voltage 50 V): 0% | Tm ([4]; peptide 0.2 µM): 36.1 °C | Tm ([4]; peptide 2 µM): 36.1 °C | Tm ([4]; peptide 20 µM): 36.2 °C | ∆Tm of dsA2 by peptide binding ([4]; protein-peptide ratio 1:10 (dsA2 2 µM), relative to empty dsA2 Tm 35.7 ± 0.6 °C, citrate phosphate buffer pH 7.6, duplicates): 1 ± 1 K

LV8, NV9 without the N-terminal asparagine (peptide)
Kd [1]: 0.07 µM | ∆Tm [2]: 11.6 K

GLGGGGGGV [GV9 (…), simplified NV9 derivative that retains the anchor residues L and V]
Kd [5]: 360 nM

GLGGGGGGV [GV9, simplified NV9 derivative that retains the anchor residues L and V]
other [6]: 43% | other [7]: 6.4 K
